This note sets out measurements from patent US20200000752A1, “Method for Treating Epilepsy” (Vanderbilt University, priority 2016, published 2020).

In data set [1] the test system is synaptic scaffold protein gephyrin. In words: Gephyrin staining in brain sections of Gabrg2+/Q390X mice. The class given is in vivo, mouse. Particulars: 0.3 mg/kg for 14 days. From the text:
Synaptosomes from mouse forebrains were isolated by subcellular fractionation^7. The samples were then fractionated by SDS-PAGE and immunoblotted by rabbit polyclonal anti-γ2 subunit antibody and synaptic scaffold proteins including gephyrin, collybistin, synaptogamin 1 and neuroligin II. The γ2 subunit protein and synaptic scaffold proteins were reduced in the Gabrg2^+/Q390X (het) mice. (FIG. 18A). […] The sections were then stained with rabbit anti-γ2 subunit (green) and mouse monoclonal anti-gephyrin (red) antibodies. The nuclei were stained with TO-PRO-3. (FIG. 18B). The raw fluorescence values of gephyrin was measured by ImageJ. […] (FIG. 18C).

Data set [2] in a line: Hepatic microsomal clearance (human). The class given is in vitro ADME. To be noted: liver microsomes, pH 7.4. On the procedure: Intrinsic clearance and predicted hepatic clearance: Intrinsic clearance will be determined using the substrate depletion approach. Reactions (0.3 mL) will be conducted using a Tecan EVO (San Jose, Calif.) in 96-well polypropylene cluster tubes with a temperature controlled water-jacketed aluminum plate holder held at 37° C. Incubations will be performed in triplicate in 0.1 M potassium phosphate buffer (pH 7.4), 3 mM MgCl2, 1 μM tizanidine, and 1 mg/mL liver microsomes. After incubation mixtures are equilibrated for 3 min at 37° C., reactions will be initiated with 10 mM NADPH to give a final NADPH concentration of 1 mM. At 0, 3, 7, 15, 25, and 45 min, a 25 μL aliquot will be removed from the reactions and delivered into 125 μL of acetonitrile containing an internal standard. The quench plates will then be centrifuged at 3,000×g for 10 min and an aliquot of the supernatants added to an injection plate with an equal volume of water. Samples will then be analyzed using LC/MS/MS.
Intrinsic clearance is calculated as: […]
Species-specific parameters for mouse and human liver protein content will be used. The predicted hepatic clearance will then be estimated using species-specific liver blood flow values: […]

In a further data set the test system is Gabrg2^+/Q390X mice. Nature of the data set: EEG spike-wave discharges (SWD) in Gabrg2+/Q390X mice after 14 days dosing. The class given is in vivo, mouse. On the procedure: (FIG. 4A). […] . (FIG. 4B). In 4B, the mice were recorded for 24 hrs for EEGs and a uniform 5-min of EEGs was scored for each hour. The SWDs with duration >1 sec were quantified.
For data set [3], the system named is GABAA receptor α1 and γ2 subunits. Nature of the data set: Surface and total GABAA receptor subunit expression in Gabrg2+/Q390X mice. The class given is in vivo, mouse. On the procedure:
As shown in FIG. 14A upper panel, the surface proteins (FIG. 14A) from the live mouse brain slices were biotinylated and analyzed by SDS-PAGE and immunoblotted with anti-γ2 or anti-al subunit antibody. In the lower panel, the protein from total lysates of cortex was analyzed by SDS-PAGE and immunoblotted with anti-γ2 subunit antibody. LC is the loading control GAPDH in the blots. FIG. 14B charts the protein IDVs of surface wild-type γ2 or al subunits (upper panel) or total level wild-type γ2 subunits (lower panel) were normalized to its loading control and then to that in untreated wild-type mice which was arbitrarily taken as 1.

Data set [4] has as its target T1, GABAA α1β2γ2(Q390X) receptors (Homo sapiens, UniProt P14867+P18507+P47870, DEL390-467).
T1 construct: expressed in transfected cells; host or cells: HEK 293T
In words: Patch clamp current amplitude, α1β2γ2(Q390X) receptors in HEK 293T cells. The class given is cell-based. Particulars: 1 μm, 4 hrs; GABA 1 mM. On the procedure: HEK 293T cells were transfected with the human GABAA receptor α1, β2 subunits with the wild-type γ2s, the mutant γ2s(Q390X) or γ2s(R82Q) subunits for 48 hrs. […] A. Lifted whole cells were recorded with the application of GABA 1 mM for 6 sec. Cells was voltage clamped at −50 mV.
HEK 293T cells were transfected with the human GABAA receptor α1, β2 subunits with the wild-type γ2s, the mutant γ2s(Q390X) or γ2s(R82Q) subunits for 48 hrs.

Data set [5] in a line: In vivo exposure (IV and PO) in rat.
Data set [6] deals with mutant GABAA α1β2γ2(R82Q) receptors. In words: Expression of mutant α1β2γ2(R82Q) receptor subunits in HEK 293T cells (SDS-PAGE immunoblot). Type of data set: cell-based. On the procedure:
HEK 293T cells were transfected with α1, […] and the mutant γ2(R82Q) subunits at 1:1:1 cDNA ratio for 48 hrs. […] (FIG. 20A). Total cell lysates were analyzed by SDS-PAGE and the membrane was immunoblotted against al or γ2 subunits. (FIG. 20A). Protein IDVs of al or γ2 subunits were normalized to the cells without treatment (0) (FIG. 20B).

Data set [7] is described as follows: Tolerability of repeated daily IP dosing in mice. Type of data set: in vivo.
The target in a further data set is CYP 2D6 (Homo sapiens, UniProt P10635). Nature of the data set: biochemical.
The subject of data set [8] is epilepsy mouse models, AppSWE/PsenIdE9 mice. In words: PTZ seizure severity (Racine scale) in different epilepsy mouse models and AppSWE/PsenIdE9 mice. Particulars: 0.3 mg/kg IP daily×14 days; PTZ 50 mg/kg IP; n=5 per group. The class given is in vivo. From the text: In this regard, an asterisk stands for the mutant protein aggregation in the neurons in related mouse models.

For the next data set, the system named is seizure activity. Nature of the data set: Oral gavage for 2 weeks, seizure threshold and seizure activity. The class given is in vivo, mice. Particulars: oral gavage 3 mg/kg for 2 weeks.
The target in another data set is CYP 2C19 (Homo sapiens, UniProt P33261). Nature of the data set: biochemical.
For another data set, the system named is heat shock protein Hsp70. In words: Hsp70 expression by high throughput flow cytometry in HEK 293T cells. Type of data set: cell-based. Particulars: 4 hrs before harvest. From the text: HEK 293T cells were transfected with α1, β2 and wild-type γ2S (wt) or the mutant γ2S(Q390X) (mut) subunits for 48 hrs (FIG. 16). […] The cells were permeabilized and stained with monoclonal hsp70 (1:200) which was then conjugated with Alexa 647.

The structures appear in SMILES notation. pIC50: −log10 of the molar value.

Chain of CYP 2D6 (P10635 whole entry): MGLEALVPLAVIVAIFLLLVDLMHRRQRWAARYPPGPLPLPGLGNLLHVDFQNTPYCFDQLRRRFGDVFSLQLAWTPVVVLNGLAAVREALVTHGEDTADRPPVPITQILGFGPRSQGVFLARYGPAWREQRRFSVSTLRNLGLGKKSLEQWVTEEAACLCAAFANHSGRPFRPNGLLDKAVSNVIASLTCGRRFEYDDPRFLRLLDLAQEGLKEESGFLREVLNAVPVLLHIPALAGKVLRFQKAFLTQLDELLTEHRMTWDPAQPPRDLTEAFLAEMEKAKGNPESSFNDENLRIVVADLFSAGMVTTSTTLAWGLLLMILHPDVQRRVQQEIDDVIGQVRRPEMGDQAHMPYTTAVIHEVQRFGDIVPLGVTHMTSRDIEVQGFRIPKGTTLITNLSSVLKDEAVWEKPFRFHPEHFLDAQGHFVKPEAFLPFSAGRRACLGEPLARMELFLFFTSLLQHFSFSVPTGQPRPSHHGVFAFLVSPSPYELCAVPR
T1 sequence (P14867 28-456, stated change not applied): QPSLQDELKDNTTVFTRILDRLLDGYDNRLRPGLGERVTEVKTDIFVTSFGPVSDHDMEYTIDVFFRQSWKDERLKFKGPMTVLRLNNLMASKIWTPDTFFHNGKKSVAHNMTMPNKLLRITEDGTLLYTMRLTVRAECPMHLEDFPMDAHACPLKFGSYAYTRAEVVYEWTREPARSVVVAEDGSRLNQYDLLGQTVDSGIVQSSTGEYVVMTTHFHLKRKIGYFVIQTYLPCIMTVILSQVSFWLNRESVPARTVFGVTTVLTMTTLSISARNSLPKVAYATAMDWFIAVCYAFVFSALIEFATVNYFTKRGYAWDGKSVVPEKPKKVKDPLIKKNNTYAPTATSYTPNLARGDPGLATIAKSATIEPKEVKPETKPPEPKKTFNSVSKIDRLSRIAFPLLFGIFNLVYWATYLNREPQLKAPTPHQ
T1 sequence (P47870 26-512, stated change not applied): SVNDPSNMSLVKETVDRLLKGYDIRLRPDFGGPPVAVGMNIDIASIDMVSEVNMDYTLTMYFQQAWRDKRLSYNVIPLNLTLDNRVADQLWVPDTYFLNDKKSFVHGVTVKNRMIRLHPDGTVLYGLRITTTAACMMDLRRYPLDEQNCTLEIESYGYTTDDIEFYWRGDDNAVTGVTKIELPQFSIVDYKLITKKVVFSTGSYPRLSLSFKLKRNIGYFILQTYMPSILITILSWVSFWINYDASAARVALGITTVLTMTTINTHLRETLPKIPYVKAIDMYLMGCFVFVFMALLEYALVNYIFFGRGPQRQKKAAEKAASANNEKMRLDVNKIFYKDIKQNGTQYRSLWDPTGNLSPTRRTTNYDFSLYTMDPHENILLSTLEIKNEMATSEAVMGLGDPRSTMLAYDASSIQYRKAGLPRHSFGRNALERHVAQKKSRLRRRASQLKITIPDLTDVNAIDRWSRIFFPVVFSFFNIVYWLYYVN
T1 sequence (P18507 40-389 isoform P18507-1 limits assumed, stated change not applied): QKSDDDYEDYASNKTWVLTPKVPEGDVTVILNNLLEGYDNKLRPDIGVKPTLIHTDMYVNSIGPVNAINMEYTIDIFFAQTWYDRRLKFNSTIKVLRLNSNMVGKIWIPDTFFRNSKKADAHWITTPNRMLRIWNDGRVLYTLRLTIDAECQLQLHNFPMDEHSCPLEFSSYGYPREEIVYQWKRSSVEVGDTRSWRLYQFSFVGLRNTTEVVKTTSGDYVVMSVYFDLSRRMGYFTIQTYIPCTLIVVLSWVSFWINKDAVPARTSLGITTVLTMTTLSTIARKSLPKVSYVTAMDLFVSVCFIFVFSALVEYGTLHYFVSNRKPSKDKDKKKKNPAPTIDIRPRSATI
Chain of CYP 2C19 (P33261 whole entry): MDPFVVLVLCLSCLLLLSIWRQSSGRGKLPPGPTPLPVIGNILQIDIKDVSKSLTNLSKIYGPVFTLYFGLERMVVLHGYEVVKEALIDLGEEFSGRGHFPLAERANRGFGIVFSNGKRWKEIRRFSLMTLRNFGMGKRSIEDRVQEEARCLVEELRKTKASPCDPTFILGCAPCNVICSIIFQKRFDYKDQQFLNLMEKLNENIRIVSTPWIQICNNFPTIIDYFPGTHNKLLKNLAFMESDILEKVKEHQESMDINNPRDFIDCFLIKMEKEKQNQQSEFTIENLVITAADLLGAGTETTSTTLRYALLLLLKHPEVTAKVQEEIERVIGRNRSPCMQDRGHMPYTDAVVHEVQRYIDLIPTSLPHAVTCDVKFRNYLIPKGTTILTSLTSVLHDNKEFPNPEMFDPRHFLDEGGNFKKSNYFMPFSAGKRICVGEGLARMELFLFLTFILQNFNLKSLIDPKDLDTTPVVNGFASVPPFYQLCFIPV

Turning to `CC1=C(O)C(=O)C=C2C1=CC=C1[C@@]2(C)CC[C@@]2(C)[C@@H]3C[C@](C)(C(=O)O)CC[C@]3(C)CC[C@]12C` [Celastrol, 3-Hydroxy-9β,13α-dimethyl-2-oxo-24,25,26-trinoroleana-1(10),3,5,7-tetraen-29-oic acid], in data set [1], the gephyrin puncta result is on record as “increased gephyrin puncta”. The CLint scaled in data set [2] stood at 31 mL/min/kg. The efficacy and tolerability entry with Gabrg2^+/Q390X mice (0.3 mg/kg IP daily for 14 days) is “good efficacy and tolerability”. Also, in the data set on Gabrg2^+/Q390X mice (1 and 5 mg/kg via oral gavage), the seizures result is reported as “seizure reduction”. Moreover, the “frequency of SWDs” value in the data set on Gabrg2^+/Q390X mice (IP or oral gavage daily for 14 days, SWDs >1 sec, 24 hrs EEG) is recorded as “dose dependently reduced”. Besides, the “surface and total α1 and γ2 subunits” value in data set [3] (0.3 mg/kg IP for 14 days, n=4 mice) was “increase of both the surface and total α1 and γ2 subunits were greater in the mutant mice than in the wildtype”. Further, the “increase of surface γ2 subunits compared with mutant mice treated with vehicle” value in [3] (0.3 mg/kg, ip) was 40-50%. Moreover, in data set [4], the current amplitude entry is “increased”. The same molecule gave a half-life in [5] of 10 h. Also, the bioavailability in data set [5] (po) came out at 7.8%. For the same molecule, in [6] (applied 4 hrs before harvest), the “expression of mutant α1β2γ2(R82Q) receptors” value is “increased”. The “enhancing GABAA receptor subunit expression, comparison” value in data set [6] (different concentrations, 4 hrs) is reported as “more effective in enhancing GABAA receptor subunit expression than Stiripentol”. The adverse signs result in data set [7] (3 and 6 mg/kg IP daily, Gabrg2^+/Q390X mice) is “lethargy, unkempt fur”; in data set [7] (IP 3 mg/kg daily for 5 days, starting at day 4), “lethargy, unkempt fur and weight loss”. For the same molecule, the tolerability result in data set [7] (IP 0.3, 0.6 and 1.5 mg/kg daily for 7 days, C57BL/6J mice) is “tolerated well”. Moreover, the “adverse effect at doses other than 3 and 6 mg/kg” value in data set [7] (IP daily 2 weeks or oral gavage 14 days) is recorded as “no adverse effect”. In addition, the pIC50 against CYP 2D6 and on CYP 2C19 was below 5.00 in each case. Besides, the seizure severity entry in [8] was “reduced seizure severity”. For the same molecule, in the data set on seizure activity, the “seizure threshold and seizure activity” value is “increasing seizure threshold and reducing seizure activity”. Moreover, the “expression of Hsp70” value in the data set on heat shock protein Hsp70 is “Increased”.
